Measured values published in patent US8940331B2, “Hydrogels, methods of making hydrogels, methods of using hydrogels, and methods of isolating, trapping, attracting, and/or killing cancer cells” (The Board of Trustees of the Leland Stanford Junior …, priority 2008, dated 2015).
Like-named read-outs stand apart in the source and are kept apart here. Square brackets hold non-standard residues; d marks the D form. Peptide text beside a SMILES is read from it. Nspe = C[C@H](NCC(=O)O)c1ccccc1; Nphe = O=C(O)CNCc1ccccc1; Nlys = NCCCCNCC(=O)O

What was measured:
[1] = format: cell-based; conditions: MTS assay, cells treated 24 h, concentration causing 50% cell death
Description: (§1) A library of cationic, amphipathic peptoid oligomers (“capetoids”) with various chain lengths, charges, helicity, hydrophobicity and amphipathicity have been synthesized. Their activities towards several in vitro cultured cancer cell lines were tested via MTS assays. Primary dermal fibroblasts and freshly isolated red blood cells were also tested to estimate their biosafety. […] In some concentration ranges, these peptoids kill cancer cells efficiently while being relatively safe to primary dermal fibroblasts. […] Furthermore, the actions of these peptoids were not affected by the known multidrug resistance. In MCF 7 cells and the multidrug resistant MCF 7 cells (kindly provided by Prof. Brandy Sikic at Stanford) which overexpress P-glycoproteins, these peptoids had similar cytotoxicities.

human RBCs = format: cell-based
Description: as §1

[2] = MTS cell viability assay, primary dermal fibroblasts; format: cell-based; conditions: MTS assay, cells treated 24 h; concentration causing 50% cell death; read-out: LC50 Primary dermal fibroblast
Description: as §1

[3] = system: Primary dermal fibroblast; assay: as above; format: cell-based; conditions: in vitro; data not shown
Description: as §1

breast cancer cells = assay: In vitro chemotaxis transwell assay; format: cell-based
Excerpt: Different chemoattractants can be chosen with regard to the cancer types of interest. As an example, Table 2 summarizes chemoattractant candidates for breast cancer. The efficacies and dosages of chemoattractants are being characterized by in vitro chemotaxis assays. The chemotactic effects of an important candidate, stromal cell-derived factor 1 (SDF-1), have been confirmed in vitro using the transwell assay.

[4] = read-out: LC50 Lncap (prostate cancer)
[5] = read-out: LC50 MCF7 (breast cancer)
[6] = read-out: LC50 MEL28 (Melanoma)
[7] = read-out: LC50 Ovcar3 (ovarian cancer)

| Compound | CC50 [1, 4] [µM] | CC50 [1, 5] [µM] | CC50 [1, 6] [µM] | CC50 [1, 7] [µM] | HC10 Red blood cells (human RBCs) [µM] | CC50 [2] [µM] | Killing of primary fibroblasts compared with cancer cell lines [3] | HC10 Red blood cells (human RBCs; concentration causing 10% hemolysis of human RBCs) [µM] | Chemotactic effects (breast cancer cells) |
| --- | --- | --- | --- | --- | --- | --- | --- | --- | --- |
| C[C@@H](c1ccccc1)N(CC(N)=O)C(=O)CN(C(=O)CN(CCCCN)C(=O)CN(Cc1ccccc1)C(=O)CN(Cc1ccccc1)C(=O)CN(CCCCN)C(=O)CN(C(=O)CN(C(=O)CN(CCCCN)C(=O)CN(Cc1ccccc1)C(=O)CN(Cc1ccccc1)C(=O)CNCCCCN)[C@@H](C)c1ccccc1)[C@@H](C)c1ccccc1)[C@@H](C)c1ccccc1 [1-Npm2,3,8,9, H-(NLys-Npm-Npm-NLys-Nspe-Nspe)2-NH2] | 10.5 | 10 | 16.5 | 11 | 80 | 18.5 | – | – | – |
| C[C@@H](c1ccccc1)N(CC(=O)N(CC(=O)N(CCCCN)CC(=O)N(CC(=O)N(CC(=O)N(CCCCN)CC(=O)N(CC(=O)N(CC(=O)N(CCCCN)CC(=O)N(CC(=O)N(CC(N)=O)Cc1ccccc1)Cc1ccccc1)Cc1ccccc1)Cc1ccccc1)Cc1ccccc1)Cc1ccccc1)Cc1ccccc1)C(=O)CNCCCCN [1achiral-Nspe 2, H-NLys-Nspe-Npm-(NLys-Npm-Npm)3-NH2] (H-[Nlys][Nspe][Nphe][Nlys][Nphe][Nphe][Nlys][Nphe][Nphe][Nlys][Nphe][Nphe]-NH2) | 8.5 | 14.5 | 18 | 15.5 | 160 | 36.5 | – | – | – |
| COc1cccc2c1C(=O)c1c(O)c3c(c(O)c1C2=O)C[C@@](O)(C(=O)CO)C[C@@H]3O[C@H]1C[C@H](N)[C@H](O)[C@H](C)O1 [Doxorubicin, reference compound] | – | – | – | – | – | – | killed primary fibroblasts as efficiently as cancer cell lines | – | – |
| C[C@@H](c1ccccc1)N(CC(N)=O)C(=O)CN(C(=O)CN(CCCCN)C(=O)CN(C(=O)CN(C(=O)CN(CCCCN)C(=O)CN(C(=O)CN(C(=O)CN(CCCCN)C(=O)CN(C(=O)CN(C(=O)CNCCCCN)[C@@H](C)c1ccccc1)[C@@H](C)c1ccccc1)[C@@H](C)c1ccccc1)[C@@H](C)c1ccccc1)[C@@H](C)c1ccccc1)[C@@H](C)c1ccccc1)[C@@H](C)c1ccccc1 [Peptoid 1, H-(NLys-Nspe-Nspe)4-NH2] (H-[Nlys][Nspe][Nspe][Nlys][Nspe][Nspe][Nlys][Nspe][Nspe][Nlys][Nspe][Nspe]-NH2) | 5 | 4.5 | 5 | 6.5 | – | 5 | – | 21000 | – |
| NCCCCNCC(=O)N(CC(=O)N(CC(=O)N(CCCCN)CC(=O)N(CC(=O)N(CC(=O)N(CCCCN)CC(=O)N(CC(=O)N(CC(=O)N(CCCCN)CC(=O)N(CC(=O)N(CC(N)=O)Cc1ccccc1)Cc1ccccc1)Cc1ccccc1)Cc1ccccc1)Cc1ccccc1)Cc1ccccc1)Cc1ccccc1)Cc1ccccc1 [Peptoid 1achiral, H-(NLys-Npm-Npm)4-NH2] (H-[Nlys][Nphe][Nphe][Nlys][Nphe][Nphe][Nlys][Nphe][Nphe][Nlys][Nphe][Nphe]-NH2) | 10.5 | 15 | 18.5 | 16 | 183 | 39.5 | – | – | – |
| C[C@@H](c1ccccc1)N(CC(N)=O)C(=O)CN(CCCCN)C(=O)CN(C(=O)CN(C(=O)CN(CCCCN)C(=O)CN(C(=O)CN(C(=O)CN(CCCCN)C(=O)CN(C(=O)CN(C(=O)CNCCCCN)[C@@H](C)c1ccccc1)[C@@H](C)c1ccccc1)[C@@H](C)c1ccccc1)[C@@H](C)c1ccccc1)[C@@H](C)c1ccccc1)[C@@H](C)c1ccccc1 [Peptoid 111mer, H-(NLys-Nspe-Nspe)3-NLys-Nspe-NH2] (H-[Nlys][Nspe][Nspe][Nlys][Nspe][Nspe][Nlys][Nspe][Nspe][Nlys][Nspe]-NH2) | 8 | 9 | 15 | 10.5 | 103 | 18.5 | – | – | – |
| CC(=O)O[C@@]12CO[C@@H]1C[C@H](O)[C@@]1(C)C(=O)[C@H](O)C3=C(C)[C@@H](OC(=O)[C@H](O)[C@@H](NC(=O)OC(C)(C)C)c4ccccc4)C[C@@](O)([C@@H](OC(=O)c4ccccc4)[C@H]21)C3(C)C [docetaxel, reference compound] | – | – | – | – | – | – | killed primary fibroblasts as efficiently as cancer cell lines | – | – |
| stromal cell-derived factor 1 [SDF-1] | – | – | – | – | – | – | – | – | confirmed |
